This note sets out measurements from patent US6376478B1, “Pharmaceutical compositions and methods for treating anxiety, anxiety disorders and memory impairment using naaladase inhibitors” (Guilford Pharmaceuticals Inc., priority 1999, dated 2002).

The structures appear in SMILES notation. Where “and” joins values, the source holds several entries; their conditions need not be identical. Equal values may be shown once. Marks after values point to notes of the source that are not given here.

One test concerns the target NAALADase (Homo sapiens, UniProt Q04609). The test can be described thus: In vitro inhibition of NAALADase activity. Format: biochemical.
Test [1] in a line: Passive avoidance anxiolytic model (shuttlebox, latency to cross). It counts as in vivo. The source says: The passive avoidance test consists of an acquisition and a retention trial. On the day prior to dosing, the animal is placed into the shuttlebox and allowed to acclimate. A conditioned stimulus (light) is presented for approximately 100 seconds. When the animal crosses to the dark compartment, a mild (0.5 mA) footshock is presented until the animal returns to the lighted compartment or for approximately 10 seconds. Animals failing to cross during acquisition trial is randomly replaced. The day following acquisition, animals are administered test article, saline or flurazepam 10 minutes prior to being placed in the shuttlebox and tested for retention as described above. Latency to cross (in seconds) is recorded.

[2] abbreviates: Flurazepam 3 mg/kg IP group, acquisition is on the day prior to dosing.
The mark [3] stands for this setting: Flurazepam 5 mg/kg IP group, Table I second study, day prior to dosing.
[4] abbreviates: Flurazepam 5 mg/kg IP, Table I second study.
Where [5] appears, read: Table II, Flurazepam 5 mg/kg IP.

Chain of NAALADase (Q04609 whole entry): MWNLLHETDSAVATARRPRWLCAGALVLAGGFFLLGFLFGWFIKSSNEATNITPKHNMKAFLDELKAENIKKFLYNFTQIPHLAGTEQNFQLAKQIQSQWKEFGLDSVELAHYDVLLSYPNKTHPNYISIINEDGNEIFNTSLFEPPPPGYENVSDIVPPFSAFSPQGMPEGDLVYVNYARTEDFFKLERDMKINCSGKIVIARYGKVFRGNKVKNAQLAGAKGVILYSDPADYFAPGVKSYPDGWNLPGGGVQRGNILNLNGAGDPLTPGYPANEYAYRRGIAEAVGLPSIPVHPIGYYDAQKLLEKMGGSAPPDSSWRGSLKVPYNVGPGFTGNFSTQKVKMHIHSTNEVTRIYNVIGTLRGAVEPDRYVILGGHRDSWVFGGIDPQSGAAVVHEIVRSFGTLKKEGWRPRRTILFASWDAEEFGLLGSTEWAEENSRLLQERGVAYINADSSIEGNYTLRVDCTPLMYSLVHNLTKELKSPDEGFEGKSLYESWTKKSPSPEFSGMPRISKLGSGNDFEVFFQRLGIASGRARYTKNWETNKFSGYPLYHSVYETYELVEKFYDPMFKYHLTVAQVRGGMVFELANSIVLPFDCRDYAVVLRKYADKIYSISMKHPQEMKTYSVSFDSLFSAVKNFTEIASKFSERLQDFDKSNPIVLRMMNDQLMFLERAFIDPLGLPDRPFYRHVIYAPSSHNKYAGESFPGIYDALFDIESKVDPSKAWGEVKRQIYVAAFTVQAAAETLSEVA

In turn, `CC(CP(=O)(O)CC(CCC(=O)O)C(=O)O)C(=O)O` (stereo not shown) showed a Ki on NAALADase of 0.002 µM. This counts as single-digit nanomolar.
Compound `CC(=O)NCP(=O)(O)CC(CCC(=O)O)C(=O)O` (stereo not shown) yielded a Ki at NAALADase of 0.118 µM.
On the same count and under the same terms, then `COC(=O)c1ccc(CP(=O)(O)CC(CCC(=O)O)C(=O)O)cc1` (stereo not shown), with 0.74 µM; and `O=C(O)CCC(CP(=O)(O)CNS(=O)(=O)c1ccccc1)C(=O)O` (stereo not shown), with 0.09 µM.
`CP(=O)(O)CC(CCC(=O)O)C(=O)O` (stereo not shown): the inhibitory constant (Ki) at NAALADase came out at 1.1 µM.
The same measure, in the same setting: the value for `O=C(O)CCC(CP(=O)(O)Cc1ccccc1F)C(=O)O` (stereo not shown) was 0.145 µM; that for `Cc1ccc(CP(=O)(O)CC(CCC(=O)O)C(=O)O)cc1` (stereo not shown) was 0.068 µM.
The same measure, in the same setting: the value for `O=C(O)CCP(=O)(O)O` was 0.234 µM.
The same measure, in the same setting: then `O=C(O)CCC(CP(=O)(O)CN(Cc1ccccc1)Cc1ccccc1)C(=O)O` (stereo not shown), with 0.175 µM.
On NAALADase, `O=C(O)CCC(CP(=O)(O)CC(CCC(=O)OCc1ccccc1)C(=O)OCc1ccccc1)C(=O)O` (stereo not shown) had a Ki of 0.013 µM. This Ki is about 13-fold lower than that of the compound before.
The same measure, in the same setting: then `O=C(O)CCC(CP(=O)(O)CN1C(=O)c2ccccc2C1=O)C(=O)O` (stereo not shown), with 0.034 µM; and `O=C(O)CCC(CP(=O)(O)Cc1ccc(OCc2ccccc2)cc1)C(=O)O` (stereo not shown), with 0.177 µM; and `O=C(O)CC(CP(=O)(O)O)C(=O)O` (stereo not shown) [2-(phosphonomethyl) succinic acid], with 0.7 µM.
On the same count and under the same terms, then `O=C(O)CCC(CP(=O)(O)CCC(=O)O)C(=O)O` (stereo not shown) [2-[[(2-carboxyethyl)hydroxyphosphinyl]methyl]pentanedioic acid], with 0.002 µM.
Compound `O=C(O)CCC(CP(=O)(O)CNC(=S)Nc1ccccc1)C(=O)O` (stereo not shown) showed a Ki on NAALADase of 0.075 µM.
On NAALADase, `O=C(O)CCC(CP(=O)(O)CC(CCC(=O)O)C(=O)O)C(=O)O` (stereo not shown) registered an inhibition constant (Ki) of 0.0006 µM.
The compound `Cc1cccc(P(=O)(O)CC(CCC(=O)O)C(=O)O)c1` (stereo not shown) showed a Ki at NAALADase of 0.18 µM.
Take `O=C(O)C(Cc1ccccc1)CP(=O)(O)O` (stereo not shown): at NAALADase, affinity was put at a Ki of 0.548 µM. Compared with the last compound, the Ki is about 3-fold higher.
Still for that read-out and setting: the value for `CCC(CS)C(CCC(=O)O)C(=O)O` (stereo not shown) [2-(1-ethyl-2-sulfanylethyl)pentanedioic acid] was 1.55 µM.
On the same count and under the same terms, the value for `O=C(O)CCC(CP(=O)(O)Cc1ccccc1)C(=O)O` (stereo not shown) was 0.053 µM; that for `O=C(O)CCC(CP(=O)(O)Cc1c(F)c(F)c(F)c(F)c1F)C(=O)O` (stereo not shown) [drawing 45] was 0.023 µM.
Still for that read-out and setting: the value for `O=C(O)CCC(CP(=O)(O)C(NC(=O)O)c1ccccc1)C(=O)O` (stereo not shown) was 2 µM; that for `O=C(O)CCC(CC(S)c1cccc2ccccc12)C(=O)O` (stereo not shown) was 10 µM; that for `O=C(O)CCC(CP(=O)(O)Cc1cccc(C(F)(F)F)c1)C(=O)O` (stereo not shown) was 0.022 µM.
`O=C(O)CCC(CP(=O)(O)C(NCc1ccccc1)c1ccccc1)C(=O)O` (stereo not shown) had a Ki on NAALADase of 0.313 µM.
On the same count and under the same terms, then `O=C(O)CCC(CP(=O)(O)CNCc1ccccc1)C(=O)O` (stereo not shown), with 0.052 µM.
Turning to `CC(C)(C)OC(=O)CCC(CP(=O)(CC(CCC(=O)O)C(=O)O)OC(C)(C)C)C(=O)OC(C)(C)C` (stereo not shown), affinity at NAALADase was put at a Ki of 4.25 µM. Compared with the last compound, the Ki is about 82-fold higher.
For `O=C(O)CCC(CP(=O)(O)c1ccc(F)cc1)C(=O)O` (stereo not shown), the affinity on NAALADase corresponds to a Ki of 0.532 µM.
On the same count and under the same terms, the value for `O=C(O)C(CCc1ccccc1)CP(=O)(O)O` (stereo not shown) was 0.199 µM.
Regarding `O=C(O)CCC(CCCS)C(=O)O` (stereo not shown) [2-(3-sulfanylpropyl)pentanedioic acid], in test [1] (Example 15, written in present tense), the “anxiolytic properties in passive avoidance” value is recorded as “exhibit anxiolytic properties”.
`O=C(O)CCC(CP(=O)(O)CCCc1ccccc1)C(=O)O` (stereo not shown) returned a Ki at NAALADase of 0.232 µM.
`O=C(O)CCC(CP(=O)(O)Cc1c(F)c(F)c(F)c(F)c1F)C(=O)O` (stereo not shown) [Compound 2, 2-[[(2,3,4,5,6-pentafluorobenzyl)hydroxyphosphinyl]methyl]pentanedioic acid]: the “Latency to Cross, Acquisition Trial, MEAN” value in test [1] (Compound 2 100 mg/kg IP group, first study (animals 31-45), day prior to dosing) amounted to 6.7 s; in test [1] (Compound 2 100 mg/kg IP group, second study (animals 103-414), day prior to dosing), 7.5 s. Moreover, the “Latency to Cross, Acquisition Trial, individual animals” value in test [1] (Compound 2 100 mg/kg IP group, first study (animals 31-45), day prior to dosing, 100 mg/kg) is 4.0 seconds and 0.1 seconds (2×) and 14.9 seconds and 5.0 seconds and 6.4 seconds and 9.5 seconds and 4.6 seconds and 5.7 seconds and 13.0 seconds and 5.1 seconds and 6.2 seconds and 10.1 seconds and 4.3 seconds and 11.4 seconds; in test [1] (Compound 2 100 mg/kg IP group, second study (animals 103-414), day prior to dosing, 100 mg/kg), 0.0 s and 11.4 s and 12.1 s and 1.5 s and 1.6 s and 7.0 s and 6.8 s and 20.0 s and 2.3 s and 0.6 s and 9.6 s and 3.2 s and 10.4 s and 5.7 s and 18.7 s. In addition, the “Latency to Cross, Retention Trial, MEAN” value was 66.8^a seconds in test [1] (Compound 2 100 mg/kg IP, first study (animals 31-45), significance difference compared to Group 1, p ≦ 0.05) and 29.6 s in test [1] (Compound 2 100 mg/kg IP, second study (animals 103-414), animal 406 omitted). Also, the “Latency to Cross, Retention Trial, individual animals” value in test [1] (Compound 2 100 mg/kg IP, first study (animals 31-45), stimulus about 100 seconds, 100 mg/kg) was 9.8 seconds and 7.1 seconds and 4.8 seconds and 100.0 seconds (8×) and 88.4 seconds and 7.8 seconds and 15.8 seconds and 68.4 seconds; in test [1] (Compound 2 100 mg/kg IP, second study (animals 103-414), animal 406 omitted from statistical analysis, 100 mg/kg), 3.1 seconds and 33.9 seconds and 100.0 seconds (2×) and 13.2 seconds and 6.6 seconds and 39.4 seconds and 7.9 seconds and 33.2 seconds and 8.4 seconds and 41.5 seconds and 19.5 seconds and 7.3 seconds and 100.0^b seconds and 0.3 seconds. Further, the “anxiolytic properties in passive avoidance” value in test [1] (Example 14) is on record as “exhibit anxiolytic properties”. Moreover, the “performance compared with flurazepam in passive avoidance” value in test [1] (Example 14, in some experiments) is recorded as “performed better than the known anxiolytic agent, flurazepam”.
`O=C(O)CCC(CP(=O)(O)Cc1ccc(O)cc1)C(=O)O` (stereo not shown): on NAALADase, the Ki was determined as 0.117 µM.
The compound `CCCCC(S)CC(CCC(=O)O)C(=O)O` (stereo not shown) [2-(2-sulfanylhexyl)pentanedioic acid] returned a Ki on NAALADase of 4.75 µM. This Ki is about 41-fold higher than that of the compound before.
In the case of `CCN(CC)CCN1C(=O)CN=C(c2ccccc2F)c2cc(Cl)ccc21` [Flurazepam, flurazepam, reference compound], in test [1] (setting [2]), the “Latency to Cross, Acquisition Trial, MEAN” value was determined as 10.1 s; the “Latency to Cross, Acquisition Trial, individual animals” value is 7.0 s and 9.5 s and 8.8 s and 2.8 s and 19.3 s and 5.4 s and 8.2 s and 28.2 s and 7.1 s and 2.4 s and 16.7 s and 8.4 s and 11.3 s and 6.9 s and 9.1 s. Besides, in test [1] (Flurazepam 3 mg/kg IP, 10 minutes before test), the “Latency to Cross, Retention Trial, MEAN” value turned out to be 47.5 s. In addition, the “Latency to Cross, Retention Trial, individual animals” value in test [1] (Flurazepam 3 mg/kg IP, 10 minutes before test, stimulus about 100 seconds) is 83.3 seconds and 100.0 seconds (4×) and 5.5 seconds and 4.7 seconds and 16.1 seconds and 65.3 seconds and 6.9 seconds and 2.1 seconds and 34.1 seconds and 2.2 seconds and 47.5 seconds and 34.9 seconds. Moreover, in test [1] (setting [3]), the “Latency to Cross, Acquisition Trial, MEAN” value was found to be 8.4 s; the “Latency to Cross, Acquisition Trial, individual animals” value is 6.6 s and 39.8 s and 2.7 s and 10.6 s and 0.5 s and 0.1 s and 7.4 s and 4.0 s and 4.9 s and 14.7 s and 10.1 s and 9.5 s and 1.9 s and 12.9 s and 0.7 s. In addition, in test [1] (setting [4]), the “Latency to Cross, Retention Trial, MEAN” value amounted to 20.8 s; the “Latency to Cross, Retention Trial, individual animals” value is 11.2 s and 56.3 s and 10.5 s and 23.9 s and 6.5 s and 6.0 s and 13.4 s and 0.8 s and 21.4 s and 2.9 s and 67.2 s and 19.0 s and 58.3 s and 4.8 s and 9.7 s. In test [1] (setting [5]), the “Latency to Cross, Mean” value was 12.9 s; the “Latency to Cross, individual animals” value was 4.7 seconds and 9.6 seconds and 4.1 seconds (2×) and 26.0 seconds and 0.3 seconds (2×) and 4.0 seconds (2×) and 8.0 seconds and 3.5 seconds and 12.0 seconds and 16.9 seconds and 89.0 seconds and 6.4 seconds.
`O=C(O)CCC(CP(=O)(O)Cc1ccc(F)cc1)C(=O)O` (stereo not shown): affinity at NAALADase was put at a Ki of 0.07 µM.
On to `O=C(O)CCC(CP(=O)(O)Cc1ccccc1C(F)(F)F)C(=O)O` (stereo not shown), for which, on NAALADase, the Ki is 0.092 µM. The Ki values of the last two compounds are within 1.5-fold of each other.
On NAALADase, `O=C(O)CCC(CP(=O)(O)CCc1ccccc1)C(=O)O` (stereo not shown) registered a Ki of 0.148 µM.
Same read-out and setting: the value for `O=C(O)CCC(CP(=O)(O)c1ccccc1)C(=O)O` (stereo not shown) was 0.036 µM; that for `Cc1ccc(NCP(=O)(O)CC(CCC(=O)O)C(=O)O)cc1` (stereo not shown) was 0.005 µM; that for `CC(CP(=O)(O)CC(CCC(=O)O)C(=O)O)C(=O)OCc1ccccc1` (stereo not shown) was 0.095 µM.
Still for that read-out and setting: the value for `O=C(O)CCC(CCSSCCC(CCC(=O)O)C(=O)O)C(=O)O` (stereo not shown) [2-[2-[(3,5-dicarboxypentyl)dithio]ethyl]pentanedioic acid] was 16.5 µM; that for `CC(C)(C)c1ccc(NCP(=O)(O)CC(CCC(=O)O)C(=O)O)cc1` (stereo not shown) was 0.002 µM; that for `CC(CS)C(CCC(=O)O)C(=O)O` (stereo not shown) [2-(1-methyl-2-sulfanylethyl)penanedioic acid] was 0.843 µM.
As for `COc1ccc(NCP(=O)(O)CC(CCC(=O)O)C(=O)O)cc1` (stereo not shown), the inhibition constant Ki at NAALADase amounted to 0.002 µM.
Still for that read-out and setting: then `CC(CP(=O)(O)O)C(=O)O` (stereo not shown), with 0.002 µM; and `O=C(O)CCCC(CP(=O)(O)O)C(=O)O` (stereo not shown), with 0.185 µM.
The same measure, in the same setting: the value for `Cc1ccc(P(=O)(O)CC(CCC(=O)O)C(=O)O)cc1` (stereo not shown) was 0.204 µM.
`CC(CS)CC(CCC(=O)O)C(=O)O` (mixture of isomers) [2-(3-sulfanyl-2-methylpropyl)pentanedioic acid]: the Ki on NAALADase came to 0.239 µM.
Same read-out and setting: the value for `CCCCP(=O)(O)CC(CCC(=O)O)C(=O)O` (stereo not shown) was 0.114 µM; that for `O=C(O)CCC(CP(=O)(O)CNc1ccc(F)cc1)C(=O)O` (stereo not shown) was 0.009 µM; that for `O=C(O)CCC(CP(=O)(O)CNC(=O)c1ccccc1)C(=O)O` (stereo not shown) was 0.142 µM.
